Among the data in US20100292188A1, “Compounds Comprising A Cyclobutoxy Group” (UCB PHARMA S.A., priority 2008, published 2010) are melting point values, retold here.

SMILES strings stand for the structures.

As a reminder, the melting point is the temperature of the solid-liquid transition.

The compound `CC(=O)N1CCc2nc(-c3ccc(O[C@H]4C[C@H](N5CCSCC5)C4)cc3)sc2C1` [Compound 22, 5-acetyl-2-{4-[(trans-3-thiomorpholin-4-ylcyclobutyl)oxy]phenyl}-4,5,6,7-tetrahydro[1,3]thiazolo[5,4-c]pyridine] displayed a melting point of 196 °C. In the case of `c1cc2sc(-c3ccc(O[C@H]4C[C@H](N5CCCCC5)C4)cc3)nc2cn1` [Compound 32, 2-{4-[(trans-3-piperidin-1-ylcyclobutyl)oxy]phenyl}[1,3]thiazolo[4,5-c]pyridine] it was 65 °C; in that of `O=c1c(O)c(N2CCc3nc(-c4ccc(O[C@H]5C[C@H](N6CCCCC6)C5)cc4)sc3C2)c1=O` [Compound 55, 3-hydroxy-4-[2-{4-[(trans-3-piperidin-1-ylcyclobutyl)oxy]phenyl}-6,7-dihydro[1,3]thiazolo[5,4-c]pyridin-5(4H)-yl]cyclobut-3-ene-1,2-dione], above 220 °C; in that of `O=C(C(O)C(F)(F)F)N1CCc2nc(-c3ccc(O[C@H]4C[C@H](N5CCCCC5)C4)cc3)sc2C1` (stereo partly drawn) [Compound 44, 1,1,1-trifluoro-3-oxo-3-[2-{4-[(trans-3-piperidin-1-ylcyclobutyl)oxy]phenyl}-6,7-dihydro[1,3]thiazolo[5,4-c]pyridin-5(4H)-yl]propan-2-ol], 147 to 148 °C. In the case of `O[C@H]1C[C@@H](N2CCc3nc(-c4ccc(O[C@H]5C[C@H](N6CCCCC6)C5)cc4)sc3C2)C1` [Compound 24, cis-3-[2-{4-[(trans-3-piperidin-1-ylcyclobutyl)oxy]phenyl}-6,7-dihydro[1,3]thiazolo[5,4-c]pyridin-5(4H)-yl]cyclobutanol] it was 169 °C; in that of `NC(=O)N1CCc2nc(-c3ccc(O[C@H]4C[C@H](N5CCCCC5)C4)cc3)sc2C1` [Compound 10, 2-{4-[(trans-3-piperidin-1-ylcyclobutyl)oxy]phenyl}-6,7-dihydro[1,3]thiazolo[5,4-c]pyridine-5(4H)-carboxamide], 199 °C; in that of `O=C(N1CCOCC1)N1CCc2nc(-c3ccc(O[C@H]4C[C@H](N5CCCCC5)C4)cc3)sc2C1` [Compound 6, 5-(morpholin-4-ylcarbonyl)-2-{4-[(trans-3-piperidin-1-ylcyclobutyl)oxy]phenyl}-4,5,6,7-tetrahydro[1,3]thiazolo[5,4-c]pyridine], 149.3 °C. In the case of `CC(=O)N1CCc2sc(-c3ccc(O[C@H]4C[C@H](N5CCCCC5)C4)cc3)nc2C1` [Compound 29, 5-acetyl-2-{4-[(trans-3-piperidin-1-ylcyclobutyl)oxy]phenyl}-4,5,6,7-tetrahydro[1,3]thiazolo[4,5-c]pyridine] it was 154.2 °C.

Turning to `CC(C)(C)OC(=O)N1CCc2nc(-c3ccc(O[C@H]4C[C@H](N5CCCCC5)C4)cc3)sc2C1` [Compound 3, tert-butyl 2-{4-[(trans-3-piperidin-1-ylcyclobutyl)oxy]phenyl}-6,7-dihydro[1,3]thiazolo[5,4-c]pyridine-5(4H)-carboxylate], the melting point is 162.3 °C. In the case of `c1cc(-c2nc3c(s2)CNCC3)ccc1O[C@H]1C[C@H](N2CCCCC2)C1` [Compound 5, 2-{4-[(trans-3-piperidin-1-ylcyclobutyl)oxy]phenyl}-4,5,6,7-tetrahydro[1,3]thiazolo[5,4-c]pyridine] it was 144.5 °C. In the case of `CC(C)Oc1c(N2CCc3nc(-c4ccc(O[C@H]5C[C@H](N6CCCCC6)C5)cc4)sc3C2)c(=O)c1=O` [Compound 56, 3-isopropoxy-4-[2-{4-[(trans-3-piperidin-1-ylcyclobutyl)oxy]phenyl}-6,7-dihydro[1,3]thiazolo[5,4-c]pyridin-5(4H)-yl]cyclobut-3-ene-1,2-dione] it was 157 to 159 °C; in that of `O=C(CO)N1CCc2sc(-c3ccc(O[C@H]4C[C@H](N5CCCCC5)C4)cc3)nc2C1` [Compound 63, 2-oxo-2-[2-{4-[(trans-3-piperidin-1-ylcyclobutyl)oxy]phenyl}-6,7-dihydro[1,3]thiazolo[4,5-c]pyridin-5(4H)-yl]ethanol], 155.3 °C; in that of `OCC(O)CN1CCc2nc(-c3ccc(O[C@H]4C[C@H](N5CCCCC5)C4)cc3)sc2C1` (stereo partly drawn) [Compound 15, 3-[2-{4-[(trans-3-piperidin-1-ylcyclobutyl)oxy]phenyl}-6,7-dihydro[1,3]thiazolo[5,4-c]pyridin-5(4H)-yl]propane-1,2-diol], 169 °C. In the case of `NC(=O)CN1CCc2nc(-c3ccc(O[C@H]4C[C@H](N5CCCCC5)C4)cc3)sc2C1` [Compound 18, 2-[2-{4-[(trans-3-piperidin-1-ylcyclobutyl)oxy]phenyl}-6,7-dihydro[1,3]thiazolo[5,4-c]pyridin-5(4H)-yl]acetamide] it was 231 °C. For `O=C(N1CCc2nc(-c3ccc(O[C@H]4C[C@H](N5CCCCC5)C4)cc3)sc2C1)C1(O)CC1` [Compound 46, 1-{[2-{4-[(trans-3-piperidin-1-ylcyclobutyl)oxy]phenyl}-6,7-dihydro[1,3]thiazolo[5,4-c]pyridin-5(4H)-yl]carbonyl}cyclopropanol], the melting point was 178 °C. `O=C(CC(F)(F)F)N1CCc2nc(-c3ccc(O[C@H]4C[C@H](N5CCCCC5)C4)cc3)sc2C1` [Compound 33, 2-{4-[(trans-3-piperidin-1-ylcyclobutyl)oxy]phenyl}-5-(3,3,3-trifluoropropanoyl)-4,5,6,7-tetrahydro[1,3]thiazolo[5,4-c]pyridine] had a melting point of 167 to 168 °C. Turning to `CC(=O)N1CCc2nc(-c3ccc(O[C@H]4C[C@H](N5CCCCCC5)C4)cc3)sc2C1` [Compound 19, 5-acetyl-2-{4-[(trans-3-azepan-1-ylcyclobutyl)oxy]phenyl}-4,5,6,7-tetrahydro[1,3]thiazolo[5,4-c]pyridine], the melting point turned out to be 135 °C. In the case of `CC(=O)N1CCc2nc(-c3ccc(O[C@H]4C[C@H](N5CCOCC5)C4)cc3)sc2C1` [Compound 8, 5-acetyl-2-{4-[(trans-3-morpholin-4-ylcyclobutyl)oxy]phenyl}-4,5,6,7-tetrahydro[1,3]thiazolo[5,4-c]pyridine] it was 161.6 to 162.2 °C; in that of `O=C(CCCN1CC[S+]([O-])CC1)N1CCc2nc(-c3ccc(O[C@H]4C[C@H](N5CCCCC5)C4)cc3)sc2C1` [Compound 41, 5-[4-(1-oxidothiomorpholin-4-yl)butanoyl]-2-{4-[(trans-3-piperidin-1-ylcyclobutyl)oxy]phenyl}-4,5,6,7-tetrahydro[1,3]thiazolo[5,4-c]pyridine], 165 °C. `NC(=O)N1CCc2sc(-c3ccc(O[C@H]4C[C@H](N5CCCCC5)C4)cc3)nc2C1` [Compound 64, 2-{4-[(trans-3-piperidin-1-ylcyclobutyl)oxy]phenyl}-6,7-dihydro[1,3]thiazolo[4,5-c]pyridine-5(4H)-carboxamide]: the melting point stood at 214.3 °C. In the case of `O=C(CO)N1CCc2nc(-c3ccc(O[C@H]4C[C@H](N5CCCCC5)C4)cc3)sc2C1` [Compound 11, 2-oxo-2-[2-{4-[(trans-3-piperidin-1-ylcyclobutyl)oxy]phenyl}-6,7-dihydro[1,3]thiazolo[5,4-c]pyridin-5(4H)-yl]ethanol] it was 177 °C.
